Source: the supplement of paper PMC11451515

Columns and labels:
Conditions in all cases: 48 h
NOMO1 [1] = experiment: cell viability relative to DMSO control; higher = less cytotoxic
Outline: (§1)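 Library compounds in DMSO were pin-dosed in an 11-point threefold series (47 μM to 0.79 nM) onto leukemia cells in 1536-well plates (5 μl). Plates held 500 cells/well of NOMO1 or SEM or 1000 cells/well of P12-Ichikawa, each adapted for at least four passages in each medium. Luminescence was read with CellTiter-Glo One after 48 h at 37°C. Viability means the per-plate percentage relative to DMSO wells, using cell-free wells as background.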

P12-Ichikawa [2] = experiment: as above
Outline: as §1

SEM cells [3] = experiment: as above
Outline: as §1

NOMO1 [4] = experiment: AUC of viability dose-response curve (% viability x log10 dose units); higher = less sensitive
Outline: (§2)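 Leukemia cells adapted to each medium (500 or 1000 cells/well, 1536-well plates) were exposed to library compounds in DMSO for 48 h at 37°C at 11 threefold doses, 47 μM to 0.79 nM. Luminescence by CellTiter-Glo One was normalised per plate to DMSO and cell-free wells, then fitted with a four-parameter log-logistic curve on log10 dose. Curves above full viability were scaled and quality-control failures removed before area under the curve was integrated by trapezoidal rule.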

P12-Ichikawa [5] = experiment: as above
Outline: as §2

SEM cells [6] = experiment: as above
Outline: as §2

COc1ccc2c(c1OC)CN1CCc3cc4c(cc3C1C2)OCO4 (stereo unspecified)
cell viability [%]
Conditions | NOMO1 [1] | P12-Ichikawa [2] | SEM cells [3]
HPLM + 10% dialyzed FBS, 0.000781 µM | 86.4 | 94.5 | 85.3
HPLM + 10% dialyzed FBS, 0.00234 µM | 82.4 | 96.2 | 80.1
HPLM + 10% dialyzed FBS, 0.00702 µM | 98.4 | 101 | 86.5
HPLM + 10% dialyzed FBS, 0.0211 µM | 99.3 | 104 | 104
HPLM + 10% dialyzed FBS, 0.0632 µM | 109 | 101 | 87.4
HPLM + 10% dialyzed FBS, 0.19 µM | 82.5 | 99.8 | 64.3
HPLM + 10% dialyzed FBS, 0.569 µM | 96.7 | 97.2 | 72.8
HPLM + 10% dialyzed FBS, 1.71 µM | 44.7 | 77 | 41.3
HPLM + 10% dialyzed FBS, 5.12 µM | 14.9 | 15.9 | 13
HPLM + 10% dialyzed FBS, 15.4 µM | 6.67 | 6.51 | 8.04
HPLM + 10% dialyzed FBS, 46.1 µM | 5.61 | 6.63 | 7.89
RPMI 5 mM glucose + 10% FBS, 0.000781 µM | 106 | 86.1 | 92.5
RPMI 5 mM glucose + 10% FBS, 0.00234 µM | 92.4 | 87 | 93.6
RPMI 5 mM glucose + 10% FBS, 0.00702 µM | 89.2 | 92.7 | 87
RPMI 5 mM glucose + 10% FBS, 0.0211 µM | 98.8 | 93.9 | 93.6
RPMI 5 mM glucose + 10% FBS, 0.0632 µM | 98.4 | 94 | 84.3
RPMI 5 mM glucose + 10% FBS, 0.19 µM | 89.9 | 89 | 45.6
RPMI 5 mM glucose + 10% FBS, 0.569 µM | 100 | 86.7 | 59.8
RPMI 5 mM glucose + 10% FBS, 1.71 µM | 42.6 | 53.6 | 20.2
RPMI 5 mM glucose + 10% FBS, 5.12 µM | 16 | 17.7 | 9.42
RPMI 5 mM glucose + 10% FBS, 15.4 µM | 6.1 | 5.68 | 7.3
RPMI 5 mM glucose + 10% FBS, 46.1 µM | 5.21 | 4.82 | 6.85
RPMI 5 mM glucose + 10% dialyzed FBS, 0.000781 µM | 88 | 84.8 | 79.6
RPMI 5 mM glucose + 10% dialyzed FBS, 0.00234 µM | 92.7 | 87.7 | 83.1
RPMI 5 mM glucose + 10% dialyzed FBS, 0.00702 µM | 93.3 | 92.6 | 96.7
RPMI 5 mM glucose + 10% dialyzed FBS, 0.0211 µM | 103 | 94.4 | 90.8
RPMI 5 mM glucose + 10% dialyzed FBS, 0.0632 µM | 102 | 92.5 | 99
RPMI 5 mM glucose + 10% dialyzed FBS, 0.19 µM | 92.2 | 83.2 | 55
RPMI 5 mM glucose + 10% dialyzed FBS, 0.569 µM | 92.9 | 83.5 | 56.5
RPMI 5 mM glucose + 10% dialyzed FBS, 1.71 µM | 49.3 | 52.9 | 28.8
RPMI 5 mM glucose + 10% dialyzed FBS, 5.12 µM | 20.5 | 13.4 | 11.3
RPMI 5 mM glucose + 10% dialyzed FBS, 15.4 µM | 5.52 | 7.72 | 8.19
RPMI 5 mM glucose + 10% dialyzed FBS, 46.1 µM | 4.95 | 6.88 | 8.01

AUC of viability dose-response curve
Conditions | NOMO1 [4] | P12-Ichikawa [5] | SEM cells [6]
HPLM + 10% dialyzed FBS | 322 | 356 | 288
RPMI 5 mM glucose + 10% FBS | 330 | 316 | 263
RPMI 5 mM glucose + 10% dialyzed FBS | 331 | 311 | 271

CC(C)NCC(O)COc1ccc(CCOCC2CC2)cc1 (stereo unspecified)
cell viability [%]
Conditions | NOMO1 [1] | P12-Ichikawa [2] | SEM cells [3]
HPLM + 10% dialyzed FBS, 0.000781 µM | – | 121 | 94.9
HPLM + 10% dialyzed FBS, 0.00234 µM | – | 118 | 94.5
HPLM + 10% dialyzed FBS, 0.00702 µM | – | 113 | 101
HPLM + 10% dialyzed FBS, 0.0211 µM | – | 117 | 107
HPLM + 10% dialyzed FBS, 0.0632 µM | – | 113 | 106
HPLM + 10% dialyzed FBS, 0.19 µM | – | 126 | 116
HPLM + 10% dialyzed FBS, 0.569 µM | – | 115 | 99.1
HPLM + 10% dialyzed FBS, 1.71 µM | – | 113 | 90.4
HPLM + 10% dialyzed FBS, 5.12 µM | – | 111 | 107
HPLM + 10% dialyzed FBS, 15.4 µM | – | 118 | 91.4
HPLM + 10% dialyzed FBS, 46.1 µM | – | 120 | 95.1
RPMI 5 mM glucose + 10% FBS, 0.000781 µM | 118 | 120 | –
RPMI 5 mM glucose + 10% FBS, 0.00234 µM | 128 | 123 | –
RPMI 5 mM glucose + 10% FBS, 0.00702 µM | 107 | 118 | –
RPMI 5 mM glucose + 10% FBS, 0.0211 µM | 109 | 121 | –
RPMI 5 mM glucose + 10% FBS, 0.0632 µM | 105 | 125 | –
RPMI 5 mM glucose + 10% FBS, 0.19 µM | 107 | 121 | –
RPMI 5 mM glucose + 10% FBS, 0.569 µM | 109 | 131 | –
RPMI 5 mM glucose + 10% FBS, 1.71 µM | 110 | 126 | –
RPMI 5 mM glucose + 10% FBS, 5.12 µM | 114 | 118 | –
RPMI 5 mM glucose + 10% FBS, 15.4 µM | 102 | 104 | –
RPMI 5 mM glucose + 10% FBS, 46.1 µM | 19.9 | 123 | –
RPMI 5 mM glucose + 10% dialyzed FBS, 0.000781 µM | 121 | 121 | 115
RPMI 5 mM glucose + 10% dialyzed FBS, 0.00234 µM | 125 | 121 | 104
RPMI 5 mM glucose + 10% dialyzed FBS, 0.00702 µM | 122 | 112 | 110
RPMI 5 mM glucose + 10% dialyzed FBS, 0.0211 µM | 117 | 116 | 113
RPMI 5 mM glucose + 10% dialyzed FBS, 0.0632 µM | 119 | 122 | 109
RPMI 5 mM glucose + 10% dialyzed FBS, 0.19 µM | 118 | 116 | 113
RPMI 5 mM glucose + 10% dialyzed FBS, 0.569 µM | 129 | 110 | 125
RPMI 5 mM glucose + 10% dialyzed FBS, 1.71 µM | 113 | 119 | 114
RPMI 5 mM glucose + 10% dialyzed FBS, 5.12 µM | 116 | 113 | 97.6
RPMI 5 mM glucose + 10% dialyzed FBS, 15.4 µM | 99.1 | 107 | 105
RPMI 5 mM glucose + 10% dialyzed FBS, 46.1 µM | 20.9 | 115 | 108

AUC of viability dose-response curve
Conditions | NOMO1 [4] | P12-Ichikawa [5] | SEM cells [6]
HPLM + 10% dialyzed FBS | 427 | 474 | 470
RPMI 5 mM glucose + 10% FBS | 453 | 469 | 458
RPMI 5 mM glucose + 10% dialyzed FBS | 448 | 461 | 468

COc1cc(-c2nn(C3CCC(N4CCN(C(C)=O)CC4)CC3)c3ncnc(N)c23)ccc1NC(=O)c1cc2ccccc2n1C (stereo unspecified)
cell viability [%]
Conditions | NOMO1 [1] | P12-Ichikawa [2] | SEM cells [3]
HPLM + 10% dialyzed FBS, 0.000781 µM | – | 117 | 121
HPLM + 10% dialyzed FBS, 0.00234 µM | – | 114 | 117
HPLM + 10% dialyzed FBS, 0.00702 µM | – | 114 | 123
HPLM + 10% dialyzed FBS, 0.0211 µM | – | 128 | 113
HPLM + 10% dialyzed FBS, 0.0632 µM | – | 115 | 123
HPLM + 10% dialyzed FBS, 0.19 µM | – | 116 | 126
HPLM + 10% dialyzed FBS, 0.569 µM | – | 107 | 123
HPLM + 10% dialyzed FBS, 1.71 µM | – | 111 | 142
HPLM + 10% dialyzed FBS, 5.12 µM | – | 103 | 121
HPLM + 10% dialyzed FBS, 15.4 µM | – | 102 | 121
HPLM + 10% dialyzed FBS, 46.1 µM | – | 83.9 | 101
RPMI 5 mM glucose + 10% FBS, 0.000781 µM | 104 | 110 | 125
RPMI 5 mM glucose + 10% FBS, 0.00234 µM | 117 | 114 | 117
RPMI 5 mM glucose + 10% FBS, 0.00702 µM | 101 | 118 | 115
RPMI 5 mM glucose + 10% FBS, 0.0211 µM | 109 | 115 | 109
RPMI 5 mM glucose + 10% FBS, 0.0632 µM | 107 | 113 | 131
RPMI 5 mM glucose + 10% FBS, 0.19 µM | 111 | 117 | 140
RPMI 5 mM glucose + 10% FBS, 0.569 µM | 106 | 109 | 132
RPMI 5 mM glucose + 10% FBS, 1.71 µM | 113 | 102 | 135
RPMI 5 mM glucose + 10% FBS, 5.12 µM | 112 | 113 | 129
RPMI 5 mM glucose + 10% FBS, 15.4 µM | 89.2 | 115 | 122
RPMI 5 mM glucose + 10% FBS, 46.1 µM | 26.8 | 100 | 85.5
RPMI 5 mM glucose + 10% dialyzed FBS, 0.000781 µM | 106 | 109 | 104
RPMI 5 mM glucose + 10% dialyzed FBS, 0.00234 µM | 110 | 110 | 124
RPMI 5 mM glucose + 10% dialyzed FBS, 0.00702 µM | 120 | 119 | 121
RPMI 5 mM glucose + 10% dialyzed FBS, 0.0211 µM | 119 | 117 | 128
RPMI 5 mM glucose + 10% dialyzed FBS, 0.0632 µM | 129 | 114 | 124
RPMI 5 mM glucose + 10% dialyzed FBS, 0.19 µM | 115 | 106 | 111
RPMI 5 mM glucose + 10% dialyzed FBS, 0.569 µM | 113 | 110 | 117
RPMI 5 mM glucose + 10% dialyzed FBS, 1.71 µM | 112 | 109 | 130
RPMI 5 mM glucose + 10% dialyzed FBS, 5.12 µM | 106 | 110 | 120
RPMI 5 mM glucose + 10% dialyzed FBS, 15.4 µM | 109 | 103 | 113
RPMI 5 mM glucose + 10% dialyzed FBS, 46.1 µM | 31.3 | 97.7 | 90

AUC of viability dose-response curve
Conditions | NOMO1 [4] | P12-Ichikawa [5] | SEM cells [6]
HPLM + 10% dialyzed FBS | 443 | 449 | 472
RPMI 5 mM glucose + 10% FBS | 450 | 465 | 468
RPMI 5 mM glucose + 10% dialyzed FBS | 460 | 460 | 468
